Experimental data: patent US12084411B2, “Hinokitiol analogues, methods of preparing and pharmaceutical compositions thereof” (The Board of Trustees of the University of Illinois, priority 2018, dated 2024)

How the values were obtained:
[1] = tested on: FPN1-deficient Caco-2 monolayers; assay: 55Fe uptake and transport in FPN1-deficient Caco-2 monolayers; format: cell-based, Human; details: 1 μM
Procedure: To knockdown FPN1 levels in wild type Caco-2 cells, the differentiated epithelial monolayers were incubated with 150 μM quercetin (Sigma 337951) for 18 hours in Caco-2 Complete media containing G418 similar to previously described (40). To knockdown FPN1 levels in shControl and shDMT1 Caco-2 monolayers, incubation was performed as above except with 250 μM quercetin. After completion of the incubation, the apical and basolateral fluid was aspirated and rinsed with PBS before ^55Fe transport and uptake were determined as described above.

[2] = tested on: fet3Δarn1-4Δ yeast; assay: Growth rescue of yeast missing all known siderophore transporters on agar plates; format: cell-based, Saccharomyces cerevisiae; details: 10 μM hinokitiol, 10 μM FeCl3
Procedure: MES/Tris buffer at pH=7.0 containing 2% agarose gel, 10 μM FeCl3, and 10 μM hinokitiol (from 40X stock in DMSO). […] Yeast were grown overnight in YPD media and diluted to an optical density at 600 nm (OD600) of 1.0 in low iron SD media before 10-fold serial dilution and inoculation of these yeast suspensions (10 μL per dot) onto the low iron SD-agar plates described above containing either DMSO vehicle or hinokitiol (10 μM from 40X DMSO stock).

[3] = biological target: T1, ferritin (Homo sapiens, UniProt P02792+P02794); assay: Removal of 55Fe from ferritin; format: biochemical; details: buffered solution, 2.5 ng ferritin/mL
T1 construct: endogenous in cells; host or cells: wild type Caco-2 monolayers (human, ATCC HTB-37); immunoprecipitated with anti-FTL1 on Protein G PLUS-Agarose beads
Procedure: The immunoprecipitated ferritin was diluted to 2.5 ng ferritin/mL (determined by ELISA as described below) in 50 mM MES/Tris buffer at pH=7.0, and increasing concentrations of hinokitiol were added (from 1000X stock in DMSO) to give the final indicated concentrations. The suspension was mixed at room temperature for 2 hours.

[4] = tested on: wild type J774 macrophages; assay: 55Fe release from wild type J774 macrophages; format: cell-based, mouse; details: same concentration as in deficient system
Procedure: J774 cells were grown in 12-well plates to ˜80% confluency. The cells were then treated with vehicle or hepcidin in fresh J774 Complete media (1 mL) and incubated at 37° C. for 1 hour. After incubation, the media was aspirated, and then a ^55Fe2Tf (50 nM) solution in J774 Complete media (1 mL) containing vehicle or hepcidin was added. The cells were incubated at 37° C. for 10 minutes, and the media was removed. The cells were rinsed with PBS (×2), and then rinsed with J774 Complete media (1 mL) for 10 minutes at 37° C. The media was aspirated, and J774 Complete media (1 mL) containing DMSO or small molecule (5 μM unless otherwise noted, 1000X dilution) was then added in the presence or absence of hepcidin. At the indicated times, aliquots (<100 μL) of the media were removed, diluted in scintillation cocktail, and radioactivity was determined by liquid scintillation counting. After completion of the experiment, the media was removed, the cells were rinsed with PBS, and the cells were lysed with 500 μL of 200 mM NaOH at 37° C. for 2 hours with continuous shaking (50 rpm). The cell lysate was diluted in scintillation cocktail and intracellular ^55Fe levels were determined by liquid scintillation counting. The % ^55Fe release was determined by the ratio of extracellular ^55Fe to total (intracellular+ extracellular) ^55Fe at the indicated times.

[5] = tested on: DMT1-deficient Caco-2 monolayers; assay: 55Fe immunoprecipitation of ferritin in Caco-2 monolayers; format: cell-based, Human; details: apical hinokitiol 500 nM
Procedure: Immunoprecipitation of ferritin was performed using human anti-FTL1 (Santa Cruz sc-74513) and Protein G PLUS-Agarose beads (Santa Cruz sc-2002). […] Cell lysate was incubated with primary antibody (1:100 dilution) at room temperature for 1 hour, then with the secondary antibody (1:10 dilution) at room temperature for 1 hour with constant mixing. Repeated centrifugations and PBS rinses were performed, and the radioactive levels in the agarose pellet were determined by dilution in scintillation fluid.

[6] = tested on: shDMT1 Caco-2 monolayers; assay: Iron-related protein and mRNA levels in shDMT1 Caco-2 monolayers; format: cell-based, Human; details: hinokitiol up to 5 μM, 25 μM FeCl3, 4 hours
Procedure: The threshold cycle values were normalized to internal control actin using primers against Fpn1 (Origene HB210988) and Fth1 (Origene HP205786) using the Pfaff1 Method and were then normalized to shDMT1 levels in the absence of hinokitiol. Caco-2 monolayers, differentiated MEL cells, or J774 cells underwent treatment as described in rescue experiments before lysis with RIPA buffer (Thermo 89901) containing protease inhibitors (Thermo 88266). Protein concentrations were determined by a BCA kit (Thermo 23225) and diluted to 2 mg/mL in the same RIPA buffer. […] Blots were thoroughly rinsed with TBST and imaged after addition of Femto Chemluminescence solution according to manufacturer instructions (Thermo Fisher 34095). For results found in FIG. 19E, protein lysate was isolated after treatment with 500 nM FeCl3 as described below. For results found in FIG. 22A, Caco-2 monolayers were treated with 25 μM FeCl3 and 0, 0.5, 1, 3, 5, 10, 25, or 50 μM hinokitiol as described below. […] Experiments for the translational and transcriptional regulated changes in endogenous proteins upon addition of increasing hinokitiol concentrations (FIG. 5F-J, FIG. 21, and FIG. 22A-L) used 25 μM of non-radioactive FeCl3 and the indicated concentration of hinokitiol (from a 1000X stock in DMSO).

[7] = Electrochemical studies (cyclic voltammetry) of iron:chelator complexes; format: physicochemical
Procedure: Potentiostatic electrochemical methods were performed on a CH Instruments electrochemical workstation (model 760 C, Austin, TX) on a three-electrode cell. Hg working electrodes were fabricated by the electrodeposition of Hg on a Pt wire utilizing the procedure previously described by Barton et al. (70). All experiments were reported versus a Ag/AgCl reference electrode and utilized a graphite auxiliary electrode. The electrolyte was sparged with UHP argon before measurements. A positive pressure of argon was maintained throughout the experiments.
Unless otherwise indicated, experiments used a 0.1 M Tris buffer in H2O or 1:1 MeOH:H2O at pH=7.2 using HNO3 and KOH as titrant. Unless otherwise indicated, experiments used a 100 mV/s scan rate, 100 μM Fe(NO3)3, and 500 μM small molecule. All redox potentials are recorded versus a normal hydrogen electrode (NHE).
The estimated redox potential of Fe(Hino)n was determined through extrapolation of the best-fit line of the determined redox potentials of Fe(Hino)n as a function of the concentration of MeOH in the 0.1 M Tris buffer at pH=7.2.

T1 sequence (P02792 2-175 limits assumed): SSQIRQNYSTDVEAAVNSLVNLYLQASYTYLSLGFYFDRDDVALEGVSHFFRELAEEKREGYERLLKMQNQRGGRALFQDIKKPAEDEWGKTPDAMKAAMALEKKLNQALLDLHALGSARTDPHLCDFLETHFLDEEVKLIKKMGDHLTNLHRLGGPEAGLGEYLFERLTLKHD
T1 sequence (P02794 whole entry): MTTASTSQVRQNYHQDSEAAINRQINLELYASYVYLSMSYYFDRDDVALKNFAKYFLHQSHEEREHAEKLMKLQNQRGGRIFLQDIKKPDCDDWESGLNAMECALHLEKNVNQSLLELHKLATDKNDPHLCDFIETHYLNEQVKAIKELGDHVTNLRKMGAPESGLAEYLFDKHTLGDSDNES

CC(C)c1cccc(=O)c(O)c1 [hinokitiol]
iron uptake [1]: without affecting iron uptake | monolayer integrity (TEER) [1]: nor disrupting monolayer integrity | transepithelial iron transport [1]: restored transepithelial iron transport | growth restoration of fet3Δarn1-4Δ yeast [2]: restores growth | excess of hinokitiol relative to ferritin needed to remove iron [3]: > 1,000,000 fold | effect on iron release in wild type system [4]: negligible effects | 55Fe incorporation into ferritin [5]: allows for ^55Fe incorporation into ferritin | Fpn1 mRNA and protein levels [6]: decreased | Hif1α and Hif2α levels [6]: similarly decreased | IRP2 protein levels [6]: decreased | TfR1 (3′-IRE) protein levels [6]: decreased | ferritin subunits (5′-IREs) protein levels [6]: increased | E^0 1:1 MeOH:H2O ([7]; Table 2, 0.1 M Tris, pH 7.2): −211 mV vs. N.H.E. | E^0 Aqueous, estimated from MeOH standard curve ([7]; extrapolation of E^01 vs. MeOH concentration): −361^¶ mV vs. N.H.E.
